Active and inactive are the calls of the source. The rule behind the calls is not given here.
Tests used:
HCT-116 [1] = assay: Cytotoxicity against p53 +/+ human HCT116 cells assessed as growth inhibition at 200 uM incubated for 24 hrs by WST-1 assay; format: functional, cell-based
HCT-116 [2] = assay: Cytotoxicity against p53 -/- human HCT116 cells assessed as growth inhibition at 200 uM incubated for 24 hrs by WST-1 assay; format: functional, cell-based
HCT-116 [3] = assay: Cytotoxicity against p53 +/+ human HCT116 cells assessed as growth inhibition incubated for 24 hrs by WST-1 assay; format: functional; details: HCT-116, 24 h, read-out: LD50 (the source's name)

| SMILES | growth inhibition (GI) (HCT-116 [1]) | growth inhibition (GI) (HCT-116 [2]) | CC50 (HCT-116 [3]) [µM] |
| --- | --- | --- | --- |
| CC(C)(C)OC(=O)NCCC(=O)Nc1cccc2ccccc12 | inactive | inactive |  |
| CC(C)(C)OC(=O)N[C@@H](Cc1ccc(O)cc1)C(=O)N[C@@H](Cc1ccccc1)C(=O)Nc1cccc2ccccc12 | Active | Active | 30.7 |
| CC(C)C[C@H](NC(=O)[C@H](Cc1ccc(O)cc1)NC(=O)OC(C)(C)C)C(=O)Nc1cccc2ccccc12 | Active | Active |  |
| CC(C)[C@H](NC(=O)[C@H](Cc1ccc(O)cc1)NC(=O)OC(C)(C)C)C(=O)Nc1cccc2ccccc12 | Active | Active |  |
| CC(C)(C)OC(=O)NCCCCC(=O)Nc1cccc2ccccc12 | inactive | inactive |  |
| CC(C)(C)OC(=O)N[C@@H](Cc1ccc(O)cc1)C(=O)N[C@@H](CC(=O)O)C(=O)Nc1cccc2ccccc12 | inactive | inactive |  |
| CC(C)(C)OC(=O)N[C@@H](Cc1ccc(O)cc1)C(=O)N[C@@H](CCC(=O)O)C(=O)Nc1cccc2ccccc12 | inactive | inactive |  |
| CC(C)(C)OC(=O)NCCCCCCC(=O)Nc1cccc2ccccc12 | inactive | inactive |  |

Source: ChEMBL document CHEMBL2331167, “Inhibitory effect of novel somatostatin peptide analogues on human cancer cell growth based on the selective inhibition of DNA polymerase β” (Bioorg Med Chem, 2013)
